# Experimental data from patent publication US12427134B2, “Methods of reducing the risk of cardiovascular events in a subject with atrial fibrillation and/or atrial flutter” (priority 2019, dated 2025).
# System: hypertriglyceridemic patients with cardiovascular disease or at high risk for cardiovascular disease
# Assay: REDUCE-IT: primary and key secondary endpoints adjusted for baseline covariates (stepwise selection) and time varying post-baseline lipids
# Type: in vivo, human
# Details: ITT
# Method: The primary efficacy analysis was performed on the ITT population. A sensitivity analysis was performed using the mITT and PP populations. As a sensitivity analysis, patients who discontinued study drug prematurely were censored for the primary composite endpoint analysis on the date of drug discontinuation. The primary analysis was repeated using this censoring rule for the mITT population. As a supportive analysis, a multivariable, stratified Cox proportional hazards model was constructed for the primary endpoint to evaluate the treatment effect adjusting for important covariates.
# As an additional exploratory analysis, the relationship between post-baseline biomarker values and treatment effects with the primary and key secondary endpoints were assessed by adding biomarker values (for example, at 4 months, or at 1 year, etc.) as time-dependent covariates in the Cox proportional hazards model. Diagnostic plots for the proportional hazard's assumption was evaluated. Weight was measured at the screening visit and at all follow-up visits, including the last visit of the study. Waist circumference was measured at the randomization visit (Visit 2; Day 0), Visit 5 (Day 720) and the last visit of the study. Descriptive statistics were presented by visit and treatment group for baseline, post-treatment change from baseline, and the percent change from baseline. Analysis methods for repeated measurements were used to compare percent change from baseline between treatments.
# In the main analysis of the primary endpoint for the REDUCE-IT trial, treatment was the only covariate employed in the stratified Cox proportional hazards model. Stratification variables included CV risk category at baseline (primary prevention cohort and secondary prevention cohort), use of ezetimibe at baseline (yes/no), and geographical region (Westernized, Eastern European, and Asia Pacific).
# The model included treatment and any of the following variables, identified by a stepwise selection procedure: (1) sex; (2) age at baseline (<65 or ≥65 years); (3) race (white and non-white); (4) presence/absence of diabetes at baseline; (5) baseline LDL-C (by tertile); (6) baseline HDL-C (by tertile); (7) baseline non-HDL-C (by tertile); (8) baseline TG (by tertile); (9) baseline hsCRP (≤3 mg/Land >3 mg/L); (10) baseline apo B (by tertile); (11) baseline RLP-C (by tertile); (12) Hopkins calculated LDL-C at baseline (by tertile); (13) waist/height ratio at baseline; (14) waist circumference at baseline.
# The SAS proportional hazard regression procedure was used to automatically conduct the stepwise selection of the important baseline covariates. The minimum p-value for the inclusion of the baseline covariate into the proportional hazard model was 0.05, and these selected baseline covariates with p<0.10 would remain in the final model as important baseline covariates after all baseline covariates were evaluated by the model. The HR, 95% CI, and p-value comparing the two treatment groups, and the HR, 95% CI, and p-value for adjusting each selected important baseline covariate in the final model were presented.
# As an additional exploratory analysis, the relationships between post-baseline lipid values and treatment effects with the primary and key secondary endpoints were assessed by adding lipid values (at 4 months, 1 year, etc.) as time varying covariates in the Cox proportional hazards model. Diagnostic plots for the proportional hazard's assumption was evaluated.
# [1] = Overall (with all selected covariates)
# [2] = adjusting baseline covariate: Age at baseline (<65 or ≥65 years)
# [3] = adjusting baseline covariate: Baseline hsCRP (≤3 mg/L or >3 mg/L)
# [4] = adjusting baseline covariate: Baseline non-HDL-C (by tertile)
# [5] = adjusting baseline covariate: Presence/absence of diabetes at baseline
# [6] = adjusting baseline covariate: Sex
# [7] = adjusting time varying covariate HDL-C (mg/dL)
# [8] = adjusting time varying covariate LDL-C (Hopkins) (mg/dL)
# [9] = adjusting time varying covariate LDL-C (ultracentrifugation) (mg/dL)
# [10] = adjusting time varying covariate LDL-C derived (mg/dL)
# [11] = adjusting time varying covariate RLP-C (mg/dL)
# [12] = adjusting time varying covariate TG (mg/dL)
# [13] = adjusting time varying covariate apo B (mg/dL)
# [14] = adjusting time varying covariate hsCRP (mg/dL)
compound,measurement,setting,value
"CC/C=C\C/C=C\C/C=C\C/C=C\C/C=C\CCCC(=O)OCC [AMR101, eicosapentaenoic acid ethyl ester]","Time to key secondary endpoint, HR (95% CI) AMR101/Placebo",[1],0.730 (0.647-0.825)
same,"Time to primary endpoint, HR (95% CI) AMR101/Placebo",[1],0.750 (0.680-0.828)
same,"Time to key secondary endpoint, HR (95% CI) AMR101/Placebo",[2],0.739 (0.654-0.834)
same,"Time to primary endpoint, HR (95% CI) AMR101/Placebo",[2],0.755 (0.684-0.833)
same,"Time to key secondary endpoint, HR (95% CI) AMR101/Placebo",[3],0.731 (0.648-0.826)
same,"Time to primary endpoint, HR (95% CI) AMR101/Placebo",[3],0.750 (0.679-0.828)
same,"Time to key secondary endpoint, HR (95% CI) AMR101/Placebo",[4],0.738 (0.654-0.833)
same,"Time to primary endpoint, HR (95% CI) AMR101/Placebo",[4],0.755 (0.684-0.833)
same,"Time to key secondary endpoint, HR (95% CI) AMR101/Placebo",[5],0.731 (0.647-0.825)
same,"Time to primary endpoint, HR (95% CI) AMR101/Placebo",[5],0.750 (0.679-0.827)
same,"Time to key secondary endpoint, HR (95% CI) AMR101/Placebo",[6],0.734 (0.650-0.829)
same,"Time to primary endpoint, HR (95% CI) AMR101/Placebo",[6],0.751 (0.680-0.829)
same,"Time to key secondary endpoint, HR (95% CI) for Treatment (AMR101 vs Placebo)",[7],0.710 (0.629-0.802)
same,"Time to primary endpoint, HR (95% CI) for Treatment (AMR101 vs Placebo)",[7],0.730 (0.661-0.806)
same,"Time to primary endpoint, HR (95% CI) for Treatment (AMR101 vs Placebo)",adjusting time varying covariate LDL-C (Friedewald) (mg/dL),0.760 (0.688-0.839)
same,"Time to key secondary endpoint, HR (95% CI) for Treatment (AMR101 vs Placebo)",[8],0.761 (0.674-0.860)
same,"Time to primary endpoint, HR (95% CI) for Treatment (AMR101 vs Placebo)",[8],0.772 (0.699-0.852)
same,"Time to key secondary endpoint, HR (95% CI) for Treatment (AMR101 vs Placebo)",[9],0.737 (0.652-0.834)
same,"Time to primary endpoint, HR (95% CI) for Treatment (AMR101 vs Placebo)",[9],0.759 (0.687-0.839)
same,"Time to key secondary endpoint, HR (95% CI) for Treatment (AMR101 vs Placebo)",[10],0.740 (0.655-0.836)
same,"Time to primary endpoint, HR (95% CI) for Treatment (AMR101 vs Placebo)",[10],0.752 (0.681-0.830)
same,"Time to key secondary endpoint, HR (95% CI) for Treatment (AMR101 vs Placebo)",[11],0.768 (0.679-0.867)
same,"Time to primary endpoint, HR (95% CI) for Treatment (AMR101 vs Placebo)",[11],0.784 (0.709-0.866)
same,"Time to key secondary endpoint, HR (95% CI) for Treatment (AMR101 vs Placebo)",[12],0.754 (0.668-0.851)
same,"Time to primary endpoint, HR (95% CI) for Treatment (AMR101 vs Placebo)",[12],0.772 (0.700-0.853)
same,"Time to key secondary endpoint, HR (95% CI) for Treatment (AMR101 vs Placebo)",[13],0.752 (0.665-0.850)
same,"Time to primary endpoint, HR (95% CI) for Treatment (AMR101 vs Placebo)",[13],0.762 (0.690-0.842)
same,"Time to key secondary endpoint, HR (95% CI) for Treatment (AMR101 vs Placebo)",[14],0.745 (0.660-0.841)
same,"Time to primary endpoint, HR (95% CI) for Treatment (AMR101 vs Placebo)",[14],0.758 (0.686-0.836)
same,"Time to key secondary endpoint, HR (95% CI) for Treatment (AMR101 vs Placebo)",adjusting time varying covariate non-HDL-C (mg/dL),0.773 (0.684-0.874)
